Consider one compound from patent US8097440B1, “Engineered microorganisms capable of producing target compounds under anaerobic conditions” (Gevo, Inc., priority 2008, dated 2012).

The target of this experiment is T1, E. coli KARI Ec_IlvC variant Ec_IlvC^B8A71S-his6 (Q110V, S78D, A71S), SEQ ID NO: 29 (Escherichia coli, UniProt P05793, A71S/Q110V/S78D).
T1 sequence (P05793 with tags, fused parts or gaps A71S/S78D/Q110V): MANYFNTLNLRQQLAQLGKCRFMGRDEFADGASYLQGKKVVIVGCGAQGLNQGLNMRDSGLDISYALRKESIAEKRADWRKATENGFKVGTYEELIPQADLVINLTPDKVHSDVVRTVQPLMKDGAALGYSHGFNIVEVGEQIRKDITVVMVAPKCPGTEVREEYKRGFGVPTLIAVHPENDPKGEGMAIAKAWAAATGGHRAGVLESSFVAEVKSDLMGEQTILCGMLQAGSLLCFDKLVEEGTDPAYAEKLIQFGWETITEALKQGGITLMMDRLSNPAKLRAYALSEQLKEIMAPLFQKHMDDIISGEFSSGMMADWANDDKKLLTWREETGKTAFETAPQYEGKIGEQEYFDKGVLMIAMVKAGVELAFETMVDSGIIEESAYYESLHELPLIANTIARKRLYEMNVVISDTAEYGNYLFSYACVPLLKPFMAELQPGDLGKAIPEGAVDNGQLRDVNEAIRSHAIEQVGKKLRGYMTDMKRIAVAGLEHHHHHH
The experiment in a line: KARI cuvette assay, purified Ec_IlvC^B8A71S-his6. The format is biochemical. The protocol: KARI cuvette assay: KARI activity was assayed kinetically by monitoring the decrease in NAD(P)H concentration by measuring the absorbance at 340 nm. A reaction buffer was prepared containing 250 mM potassium phosphate pH 7, 1 mM DTT and 10 mM MgCl2. Cell pellets were resuspended (0.25 g wet weight/mL buffer) in 250 mM potassium phosphate (KPi) buffer containing 1 mM DTT and 10 mM MgCl2. The resuspended cells were lysed by sonication for 1 min with a 50% duty cycle and pelleted at 11000×g and 4° C. for 15 min. A reaction mixture consisting of 910 μl reaction buffer, 50 μl acetolactate, and 20 μl lysate was prepared in a cuvette. The reaction was initiated by addition of 20 μL of 10 mM NAD(P)H. A substrate free control was conducted using reaction buffer without the addition of acetolactate.
Purification of KARI: Cell pellets used for purification were resuspended in purification buffer A (20 mM Tris, 20 mM imidazol, 100 mM NaCl, 10 mM MgCl2, pH 7.4). KARI was purified by IMAC (Immobilized metal affinity chromatography) over a 1 ml Histrap High Performance (histrap HP) column pre-charged with Nickel (GE Healthcare) using an Akta FPLC system (GE Healthcare). […]

A word on the kcat/KM: it is the second-order rate constant that governs catalysis at low substrate concentration. As to `NC(=O)C1=CN([C@@H]2O[C@H](COP(=O)(O)OP(=O)(O)OC[C@H]3O[C@@H](n4cnc5c(N)ncnc54)[C@H](O)[C@@H]3O)[C@@H](O)[C@H]2O)C=CC1` [NADH, nicotinamide adenine dinucleotide], under “purified, acetolactate as substrate”, the kcat/KM worked out at 38330 M⁻¹ s⁻¹. For the same compound, the “(kcat/KM with NADH)/(kcat/KM of Ec_IlvC^his6 with NADPH)” value (relative to Ec_IlvC^his6 with NADPH) is reported as 44%.
